Experimental data published in patent publication US20210015793A1, “COMPOUNDS FOR TREATING CNS- AND NEURODEGENERATIVE DISEASES” (ETH ZURICH, priority 2018, published 2021).

Tests used:
[1] = Safety and tolerability in healthy human research participants (phase-1 study); format: in vivo
Description: Study design: The study was a three-part phase-1, randomized, placebo-controlled study of Compound-1F. The primary end-point was safety and tolerability. Secondary objectives were plasma pharmacokinetics data (part-1, part-2, part-3) and peripheral blood mononuclear cell MPP1 status (part-3).
The first part (part-1) was a single ascending dose-effect study with three cohorts of 4 healthy research participants each, who received a single dose of 20 mg, 40 mg or 60 mg in subsequent cohorts. Three drug-treated and one placebo-treated subjects were randomized in each cohort (2 males, 2 females; age: 35-65 years). After completion of safety assessment, blood was drawn for analysis of pharmacokinetics data.
In the second part (part-2) of the study, the daily dose was increased every two days until the final dose of 60 mg/day was reached, i.e. the daily dose was 20 mg on day-1 and day-2, 40 mg on day-3 and day-4, and 60 mg on day-5 until day-14. Blood was drawn before study begin for analysis of laboratory parameters and on day-14 for analysis of laboratory parameters and determination of pharmacokinetics data, at the indicated time points after administration of the last dose of 60 mg. All study participants (n=10; 7 males, 3 females; Caucasians; age: 37-66 years; 8 participants received drug, and two received placebo) were healthy and had the possibility to withdraw from the study at any time. All study participants wanted to complete the study.
In the third part (part-3) of the study, a cohort of 8 healthy elderly voluntary research participants (7 males, 1 female; age 60-73 years; all Caucasians) received a daily oral dose of 60 mg of Compound-1F for 28 days (6 participants received drug, 2 placebo). In part-3 of the study, blood was drawn before study begin for analysis of clinical laboratory parameters and MPP1 status, and on day-28 for analysis of laboratory parameters and MPP1 status, and 24 h after the last drug intake for measurement of serum concentration of Compound-1F. All participants of part-3 had the possibility to withdraw from the study at any time but all study participants wanted to complete the study.
The study participants were under the medical supervision of the Rabaa El Adaweya Medical Central Hospital, Cairo, Egypt (Clinical study director: Dr. Raafat Mahmood Fawzy). […] One participant in the placebo group and 1 participant in the drug treatment group (part-2 of the study) reported softer stools beginning on day-3 after drug/placebo intake. This side effect ended after completion of the study, and was most likely due to the intake of mannitol, which was used as an additive for formulation of study drug and placebo. There were no other adverse effects in part-1, part-2 and part-3 of the study.

Tg2576 AD mice = assay: Abeta plaque load by immunohistology (BAM-10) in Tg2576 mice; format: in vivo, mouse; settings: 18-month-old Tg2576 mice, 8 mg/kg/d in drinking water for 6 months, vs untreated Tg2576 controls
From the text: For a genetic model of familial AD (FAD), Tg2576 mice (Taconic Biosciences, Rensselaer, N.Y., USA) were used with neuron-specific overexpression of human APPSwe, i.e the Swedish mutation of APP695 isolated from a Swedish family with FAD featuring the double mutation K670N/M671L (Hsiao et al., Science 274, 99-103 (1996)). As a genetic model of tauopathy, the Tg-TauP301L mice (Model 2508, Taconic Biosciences, Rensselaer, N.Y., USA) with neuron-specific expression of the most common FTDP-17 (frontotemporal dementia and parkinsonism linked to chromosome 17) mutation (Lewis et al., Nature Genetics 25, 402-405 (2000)) were used. To enhance neurodegeneration and neuronal loss, the CUMS (chronic unpredictable mild stress) protocol was performed with male 12 months-old Tg2576 mice for 3 months essentially as described (AbdAlla et al., J. Biol. Chem. 284, 6554-6565 (2009); AbdAlla et al., J. Biol. Chem. 284, 6566-6574 (2009)). […]
For Abeta plaque load quantification by immunohistochemistry, paraffin-embedded brain sections (or cryosections) (8 microm, 10-15 sections/brain taken at 30-50 microm intervals) were prepared from brains isolated from 18-month-old Tg2576 mice (Taconic Biosciences, Rensselaer, N.Y., USA) treated for six months without and with Compound-1 and Compound-4 (8 mg/kg body weight/day in drinking water). […]

[2] = healthy humans, 14 days of repeated once daily oral dosing

Row | Compound | clinical laboratory parameters and cardiovascular examination data (blood pressure, heart rate) ([1]; all research participants, during and after the study (observation period 4 weeks)) | drug-related adverse events (safety assessment) ([1]; elderly participants, 28 days once daily 60 mg) | clinical laboratory findings ([1]; elderly participants, before and after 28 days of once daily 60 mg) | percentage of neutrophils and lymphocytes [1, 2] | total number of white blood cells [1, 2] | hematologic parameters (Hb, HCT, MCV, MCHC, RBCs) before vs after treatment ([1]; healthy humans, once daily 60 mg, 14 days of study) | treatment related adverse effects (safety assessment) ([1]; healthy humans, oral Compound-1F, single ascending dose 20-60 mg) | kidney (serum urea, creatinine) and liver (AST, ALT) function parameters ([1]; healthy humans, repeated once daily 60 mg/d) | participants in the drug treatment group reporting softer stools ([1]; part-2 of the study, beginning on day-3, attributed to mannitol) | Abeta plaque load in hippocampus and frontal cortex (Tg2576 AD mice)
1 | O=C(C1=C(O)C(c2ccc(F)cc2)N(c2ccc3c(c2)OCO3)C1=O)C1CC1 (stereo not shown) [Compound-1F, 1-(1,3-Benzodioxol-5-yl)-4-(cyclopropanecarbonyl)-2-(4-fluorophenyl)-3-hydroxy-2H-pyrrol-5-one] | within the normal range | no drug-related adverse events | within the normal range | within the normal range | not altered | not significantly different | no treatment related adverse effects | within the normal range | 1 participant | 
2 | O=C(C1=C(O)C(c2ccccc2)N(c2ccc3c(c2)OCO3)C1=O)C1CC1 (stereo not shown) [Compound-1, 1-(1,3-benzodioxol-5-yl)-4-(cyclopropane-carbonyl)-3-hydroxy-2-phenyl-2H-pyrrol-5-one] |  |  |  |  |  |  |  |  |  | significantly retarded the accumulation of Abeta plaques
